Source: patent US7332513B2, “Thiazole-based nitric oxide donors having acyl substituent(s) and uses thereof” (priority 2004, dated 2008)

Experiments:
Format in all cases: cell-based
[1] = test system: c-GMP in slices of thoracic aorta of rats; assay: Cyclic-GMP measurement in aortic rat tissue (radioimmunoassay); conditions: for levels of cGMP as compared with GTN: isolated rat aorta, FIGS. 25, 27, 33; for cGMP Post-infusion: rat aorta, post-infusion (repeated treatment)
Method: GTN (10^−6 M) was added to the chamber and, 1 minute after exposure to the drug, rings (usually 3-5) were taken, wrapped with aluminum foil and immediately frozen in liquid nitrogen for storage. Control sample group was treated with the vehicle solution only. At the time of analysis, rings were thawed, blotted over a dry gauzed and weighted. A known weight of tissue was homogenized in 2 ml ice-cold modified Hank's balanced salt solution containing (in gram/liter) NaCl 8; KCl 0.4; glucose 1; KH2PO4 0.06; Na2HPO4 0.047; Phenol red 0.017 and further containing 25 mM EDTA (disodium salt). The homogenate was centrifuged at 4000 g (force units) for 10 minutes at 2-4° C. and the supernatant was thereafter transferred into fresh pre-cooled test tube containing 1 ml of acetonitrile. The tubes were vortex mixed for a few seconds and subsequently centrifuged at 4000 g for 5 minutes at 2-4° C., to remove the precipitated protein. Each supernatant was transferred into a clean test tube and evaporated to dryness under a stream of nitrogen at 55° C. The dry residue was reconstituted with 10 volumes of Tris-EDTA buffer pH 7.5 (0.05 M Tris containing 4 mM EDTA). Aliquots of 100 μl of the reconstituted solution in duplicate were used for c-GMP measurements using Amersham RIA kit, as is described in Haj-Yehia & Benet [Pharmacology, 1995, 273, 1, pp. 94-100]. Standard curves were plotted with six concentrations (0, 0.5, 1, 2, 4 and 8 pmoles of c-GMP per tube).
The NO-tolerance effect of GTN and NO-donor compounds according to the present invention was measured by following the production of c-GMP in slices of thoracic aorta of rats. Thus, the production of c-GMP was measured as described in the methods section above for the reference NO-donor compound GTN, and for the NO-donors of the present invention Pet-2, Pet-3, Pet-7, Pet-8, Pet-10, Pet-12, Pet-24, Pet-59, Pet-147, Pet-149, Pet-152, Pet-154 and Pet-155.

[2] = test system: isolated rat aorta; assay: In vitro vasorelaxation, cumulative concentration-response curves on rat aortic rings contracted with epinephrine; conditions: isolated rat aorta pre-treated with 1 μM epinephrine
Source text: Male Sprague Dawley rats were anaesthetized using intraperitoneal injection of ketamine and xylazine (50 and 10 milligram per kilogram, respectively) and the thoracic aorta, the large upper portion of the descending aorta, starting at the caudal border of the chest bone, was removed thereafter, while carefully removing the paraadventetial tissue surrounding the vessel. Aortae were cut into rings of 4-5 millimeters and mounted onto the tissue path. The path buffer (Krebs-bicrbonate) was constantly gassed with carbogen and maintained at 37° C. The rings were preloaded under 2 g tension and equilibrated for 90 minutes, while refreshing the buffer every 15 minutes. After stabilization, the rings were contracted with epinephrine (1 μM). Cumulative Concentration-Response Curves (CCRC) were measured for the vasorelaxing effect induced by adding various concentrations, ranging from 10^−10 M to 10^−5 M of Pet-2, Pet-3, Pet-7, Pet-8, Pet-12, Pet-24, Pet-43, Pet-59, Pet-147, Pet-152 and Pet-154, and glyceryltrinitrate (GTN), according to the procedure described in Feelich et al., Molecular Pharmacology, 56:243-253 (1999). The vehicle, which was used for this experiment was water:ethanol:propyleneglycol at proportional ratio of 1:1:1.
The vasorelaxing effect of the thiazole-derived NO-donors according to the present invention was measured on slices of thoracic aorta of rats contracted with epinephrine, as described hereinabove.
The obtained results for Pet-2, Pet-3, Pet-7, Pet-8, Pet-12, Pet-24, Pet-43, Pet-59, Pet-147, Pet-152 and Pet-154 are presented in FIGS. 2-14, and are summarized in Table 3 below.

[3] = test system: isolated rat aorta; assay: In vitro induction of tolerance to NO releasing compounds (vasorelaxation of pre-exposed aortic rings, incl. cross-tolerance); conditions: rat aorta pre-treated with epinephrine and then 0.44 mM of the compound
Method: Aortic rings were prepared as described hereinabove, and were exposed to 0.44 mM GTN (vehicle was water:ethanol:propyleneglycol at proportional ratio of 1:1:1) for 1 hour before CCRC construction, to thereby induce tolerance to nitroglycerine. At the end of the tolerance induction period, rings were thrice washed with the path buffer (Krebs-bicrbonate) every 15 minutes for the following hour and then CCRC for vasorelaxation on GTN-induced tolerance rings were constructed for GTN (pretreated versus untreated rings, FIG. 15), in order to verify the ability to induce and measure GTN tolerance induction in vitro
Attempted induction of tolerance to the NO-donating compounds of the present invention was performed under the same conditions as for GTN. Thus, in an exemplary experiment, rings were exposed to 0.44 mM solution of Pet-3 in the attempt to induce tolerance for Pet-3. CCRC were then measured for the vasorelaxing effect of Pet-3 on a group of rings which were pre-exposed to Pet-3 as to induce tolerance to Pet-3, and for an untreated control group. The above protocol was repeated with Pet-2, Pet-7, Pet-8, Pet-12, Pet-24, Pet-43, Pet-149 and Pet-152.
Cross-tolerance studies were conducted using the same technique described above for measuring vasorelaxation of aortic rings from rats. Two groups of aortic rings samples were pre-treated with GTN, then one group was measured for vasorelaxation by GTN and the second group for vasorelaxation by Pet-12, an exemplary NO-donor according to the present invention. For the opposite cross-tolerance studies, two groups of aortic rings samples were pre-treated with Pet-12, then one group was measured for vasorelaxation by GTN and the second group for vasorelaxation by Pet-12.

Q: How did the “levels of cGMP as compared with GTN” value [1] turn out when `Cc1nc(N)sc1CCO[N+](=O)[O-]` [Pet-10, 4-methyl-5-(2-nitrooxy-ethyl)-thiazole-2-ylamine] was run?
A: increased levels of cGMP

Q: How did the “vasorelaxation effect as compared with glyceryltrinitrate (words)” value [2] turn out when `Cc1nc(NC(=O)[C@@H](C)c2ccc(CC(C)C)cc2)sc1CCO[N+](=O)[O-]` (stereo in doubt) [Pet-152, 2-(4-Isobutyl-phenyl)-N-[4-methyl-5-(2-nitrooxy-ethyl)-thiazol-2-yl]-propionamide] was run?
A: superior vasorelaxation effect

Q: What about the “levels of cGMP as compared with GTN” value [1] of the same compound?
A: increased levels of cGMP

Q: Which “levels of cGMP as compared with GTN” value [1] does the source give for `CCNc1nc(C)c(CCO[N+](=O)[O-])s1` [Pet-147, Ethyl-[4-methyl-5-(2-nitrooxy-ethyl)-thiazol-2-yl]-amine] here?
A: increased levels of cGMP

Q: Which “vasorelaxation effect as compared with glyceryltrinitrate (words)” value [2] does the source give for `Cc1nc(C)c(CCO[N+](=O)[O-])s1` [Pet-3, 2,4-Dimethyl-5-(2-nitrooxy-ethyl)-thiazole] here?
A: superior vasorelaxation effect

Q: And the “tolerance induction after pre-treatment with the same compound” value (“tolerance induction after pre-treatment” below) [3]?
A: absence of tolerance induction

Q: And the “levels of cGMP as compared with GTN” value [1]?
A: increased levels of cGMP

Q: And the “cGMP Post-infusion” value [1]?
A: 118 ± 10 pmol/g tissue

Q: What does the source list for `Cc1nc(-c2ccc(C(F)(F)F)cc2)sc1CCO[N+](=O)[O-]` [Pet-59, 4-Methyl-5-(2-nitrooxy-ethyl)-2-(4-trifluoromethyl-phenyl)-thiazole]?
A: vasorelaxation effect as compared with glyceryltrinitrate (words) [2]: superior vasorelaxation effect; levels of cGMP as compared with GTN [1]: increased levels of cGMP

Q: With `Cc1nc(-c2ccccc2)sc1CCO[N+](=O)[O-]` [Pet-8, 4-Methyl-5-(2-nitrooxy-ethyl)-2-phenyl-thiazole] as the compound, how does the “vasorelaxation effect as compared with glyceryltrinitrate (words)” value [2] read?
A: superior vasorelaxation effect

Q: What about the “levels of cGMP as compared with GTN” value [1] of the same compound?
A: increased levels of cGMP

Q: What about the “cGMP Post-infusion” value [1] of the same compound?
A: 136 ± 12 pmol/g tissue

Q: Which results are given for `Cc1nc(Nc2cccc3ccccc23)sc1CCO[N+](=O)[O-]` [Pet-149, [4-Methyl-5-(2-nitrooxy-ethyl)-thiazol-2-yl]-naphthalen-1-yl-amine]?
A: vasorelaxation effect as compared with glyceryltrinitrate (words) [2]: superior vasorelaxation effect; tolerance induction after pre-treatment with the same compound [3]: absence of tolerance induction; levels of cGMP as compared with GTN [1]: increased levels of cGMP; cGMP Post-infusion [1]: 115 ± 14 pmol/g tissue

Q: How did the “levels of cGMP as compared with GTN” value [1] turn out when `Cc1nc(NC(=O)c2cccnc2)sc1CCO[N+](=O)[O-]` [Pet-154, N-[4-methyl-5-(2-nitrooxy-ethyl)-thiazol-2-yl]-nicotinamide] was run?
A: increased levels of cGMP

Q: For `CNc1cncc(-c2nc(C)c(CCO[N+](=O)[O-])s2)n1` [Pet-24, Methyl-{6-[4-methyl-5-(2-nitrooxy-ethyl)-thiazol-2-yl]-pyrazin-2-yl}-amine], which “tolerance induction after pre-treatment” value [3] is on record?
A: absence of tolerance induction

Q: And the “levels of cGMP as compared with GTN” value [1]?
A: increased levels of cGMP

Q: What about the “cGMP Post-infusion” value [1] of the same compound?
A: 112 ± 10 pmol/g tissue

Q: For `Cc1nc(Nc2nc(C)c(CCO[N+](=O)[O-])s2)sc1CCO[N+](=O)[O-]` [Pet-43, Bis-[4-methyl-5-(2-nitrooxy-ethyl)-thiazol-2-yl]-amine], which “vasorelaxation effect as compared with glyceryltrinitrate (words)” value [2] is on record?
A: superior vasorelaxation effect

Q: What about the “tolerance induction after pre-treatment” value [3] of the same compound?
A: absence of tolerance induction

Q: How did the “vasorelaxation effect as compared with glyceryltrinitrate (words)” value [2] turn out when `C=CCNc1nc(C)c(CCO[N+](=O)[O-])s1` [Pet-155, allyl-[4-methyl-5-(2-nitrooxy-ethyl)-thiazol-2-yl]-amine] was run?
A: superior vasorelaxation effect

Q: And the “levels of cGMP as compared with GTN” value [1]?
A: increased levels of cGMP
